Data published in US8569472B2, “Efficient cell culture system for hepatitis C virus genotype 6A” (priority 2007, dated 2013).

Test system: JFH1-based recombinants of genotypes 1a, 1b, 2a, 2b, and 6a
Assay type: cell-based, hepatitis C virus
Conditions: 500 IU/mL interferon-α2b, 20 μM ribavirin or 50 μM amantadine; for decrease in supernatant HCV RNA titers / decrease in the number of infected cells: 72 hrs, Huh7.5 cultures infected with genotype 1a/1b, 2a/2b and 6a recombinants

## NC12CC3CC(CC(C3)C1)C2 [amantadine]
  antiviral effect of treatment (infected cells and supernatant HCV RNA titers): no apparent effect
  decrease in supernatant HCV RNA titers: did not decrease
  decrease in the number of infected cells: did not decrease

## NC(=O)c1ncn([C@@H]2O[C@H](CO)[C@@H](O)[C@H]2O)n1 [ribavirin]
  antiviral effect of treatment (infected cells and supernatant HCV RNA titers): no apparent effect
  decrease in supernatant HCV RNA titers: did not decrease
  decrease in the number of infected cells: did not decrease
